IC50 and viability, T/C data for five compounds are collected here from PubChem BioAssay AID1963431 (Molecular Pharmacology Branch, DTP, NCI, 2024).

“And” between values parts separate entries of the source, which are not always exact repeats. Identical values can stand only once.

The assay deals with Rh18 complex spheroid viability, percent test/control. The assay is described as follows: Anticancer human tumor Rh18 cell line growth inhibition [Asc].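 As to all read-outs here: spheroids exposed to compound for 7 days.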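 As to viability, T/C: 100% = DMSO vehicle control wells.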 Particulars: for viability, T/C: stronger effect = lower value. The essentials: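 Concentration series start at each agent's clinical Cmax, or at 10 microM when none is established, and drop in half-log steps; agents are applied alone or together to complex spheroids built with HUVEC and hMSC.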

[1] abbreviates: curve of first compound, second compound 0.03 µM.
Where [2] appears, read: curve of first compound, second compound 0.0949 µM.
[3] abbreviates: curve of first compound, second compound 0.3 µM.
Where [4] appears, read: curve of first compound, second compound 0.949 µM.
The mark [5] stands for this setting: curve of first compound, second compound 3 µM.
The mark [6] stands for this setting: second compound 0.03 µM, first compound 0.00316 µM.
[7] abbreviates: second compound 0.03 µM, first compound 0.01 µM.
The mark [8] stands for this setting: second compound 0.03 µM, first compound 0.0316 µM.
[9] abbreviates: second compound 0.03 µM, first compound 0.1 µM.
[10] abbreviates: second compound 0.03 µM, first compound 0.316 µM.
[11] abbreviates: second compound 0.03 µM, first compound 1 µM.
The mark [12] stands for this setting: second compound 0.0949 µM, first compound 0.00316 µM.
Setting [13] is: second compound 0.0949 µM, first compound 0.01 µM.
Setting [14] is: second compound 0.0949 µM, first compound 0.0316 µM.
The mark [15] stands for this setting: second compound 0.0949 µM, first compound 0.1 µM.
Setting [16] is: second compound 0.0949 µM, first compound 0.316 µM.
Setting [17] is: second compound 0.0949 µM, first compound 1 µM.
The mark [18] stands for this setting: second compound 0.3 µM, first compound 0.00316 µM.
The mark [19] stands for this setting: second compound 0.3 µM, first compound 0.01 µM.
Setting [20] is: second compound 0.3 µM, first compound 0.0316 µM.
[21] abbreviates: second compound 0.3 µM, first compound 0.1 µM.
Where [22] appears, read: second compound 0.3 µM, first compound 0.316 µM.
Where [23] appears, read: second compound 0.3 µM, first compound 1 µM.
The mark [24] stands for this setting: second compound 0.949 µM, first compound 0.00316 µM.
Where [25] appears, read: second compound 0.949 µM, first compound 0.01 µM.
Setting [26] is: second compound 0.949 µM, first compound 0.0316 µM.
Where [27] appears, read: second compound 0.949 µM, first compound 0.1 µM.
Setting [28] is: second compound 0.949 µM, first compound 0.316 µM.
Setting [29] is: second compound 0.949 µM, first compound 1 µM.
Where [30] appears, read: second compound 3 µM, first compound 0.00316 µM.
Setting [31] is: second compound 3 µM, first compound 0.01 µM.
Setting [32] is: second compound 3 µM, first compound 0.0316 µM.
Setting [33] is: second compound 3 µM, first compound 0.1 µM.
[34] abbreviates: second compound 3 µM, first compound 0.316 µM.
Where [35] appears, read: second compound 3 µM, first compound 1 µM.

As to `CNC(C)C(=O)NC1CN(S(=O)(=O)c2cccc(S(=O)(=O)N3CCC4CCC(C(=O)NC(c5ccccc5)c5ccccc5)N4C(=O)C(NC(=O)C(C)NC)C3)c2)CCC2CCC(C(=O)NC(c3ccccc3)c3ccccc3)N2C1=O` (stereo not given) + CCN1C(C(=O)NC23CCC(C(=O)O)(CC2)CC3)C(c2cccc(Cl)c2F)C2(C(=O)Nc3cc(Cl)ccc32)C12CCCCC2, the IC50 is less than 3.16 nM under setting [1]; less than 3.16 nM under setting [2]; less than 3.16 nM under setting [3]; less than 3.16 nM under setting [4]; less than 3.16 nM under setting [5]. Also, the viability, T/C is, setting by setting: under setting [6], 30.1%; under setting [7], 27.8%; under setting [8], 23.9%; under setting [9], 18.8%; under setting [10], 19.3%; under setting [11], 17.5%. For the same compound, the viability, T/C runs as follows: under setting [12], 16.2%; under setting [13], 19.3%; under setting [14], 16.2%; under setting [15], 16.8%; under setting [16], 13.7%; under setting [17], 16.5%. For the same compound, the viability, T/C reads like this: under setting [18], 13.8%; under setting [19], 11%; under setting [20], 14.3%; under setting [21], 12.4%; under setting [22], 8.81%; under setting [23], 10.8%. The viability, T/C is 10.8% under setting [24]; 10% under setting [25]; 10.5% under setting [26]; 9.19% under setting [27]; 9.26% under setting [28]; 10.8% under setting [29]. For the same compound, the viability, T/C was 10.8% under setting [30]; 8.24% under setting [31]; 9.03% under setting [32]; 9.34% under setting [33]; 11.1% under setting [34]; 10.5% under setting [35].

Turning to `CNC(C)C(=O)NC1CN(S(=O)(=O)c2cccc(S(=O)(=O)N3CCC4CCC(C(=O)NC(c5ccccc5)c5ccccc5)N4C(=O)C(NC(=O)C(C)NC)C3)c2)CCC2CCC(C(=O)NC(c3ccccc3)c3ccccc3)N2C1=O` (stereo not given), for the setting “compound 0.00316 µM”, the viability, T/C is 80.3% and 79.9% and 75.9%. Besides, the 50% inhibitory concentration (IC50) (compound alone, run of 11/15/2022) is greater than 1000 nM; the IC50 (curve of compound) was 21.6 nM and 33.4 nM.

On to `O=C(c1ccc(F)c(F)c1Nc1ccc(I)cc1F)N1CC(O)([C@@H]2CCCCN2)C1` + Cc1c(S(C)(=O)=O)c(-c2cc(F)cc(N3CCN(c4ccc(NS(=O)(=O)c5ccc(NC(CCN6CCC(C(=O)OCCCP(=O)(O)O)CC6)CSc6ccccc6)c(S(=O)(=O)C(F)(F)F)c5)cc4)CC3)c2)c(-c2ccc(Cl)cc2)n1C(C)C, for which the 50% inhibitory concentration (IC50) (curve of first compound, second compound 0.1 µM) was less than 3.16 nM; the IC50 (curve of first compound, second compound 0.316 µM) was less than 3.16 nM; the half-maximal inhibitory concentration (IC50) (curve of first compound, second compound 1 µM) was less than 3.16 nM; the IC50 (curve of first compound, second compound 3.16 µM) was less than 3.16 nM; the half-maximal inhibitory concentration (IC50) (curve of first compound, second compound 10 µM) was less than 3.16 nM. The viability, T/C was 14.8% (second compound 0.1 µM, first compound 0.00316 µM); 13.6% (second compound 0.1 µM, first compound 0.01 µM); 17.2% (second compound 0.1 µM, first compound 0.0316 µM); 11% (second compound 0.1 µM, first compound 0.1 µM); 6.6% (second compound 0.1 µM, first compound 0.316 µM); 1.12% (second compound 0.1 µM, first compound 1 µM). Further, the viability, T/C was 9.21% (second compound 0.316 µM, first compound 0.00316 µM); 11.2% (second compound 0.316 µM, first compound 0.01 µM); 11% (second compound 0.316 µM, first compound 0.0316 µM); 8.03% (second compound 0.316 µM, first compound 0.1 µM); 4.04% (second compound 0.316 µM, first compound 0.316 µM); 0.96% (second compound 0.316 µM, first compound 1 µM). The viability, T/C is 8.77% (second compound 1 µM, first compound 0.00316 µM); 14.6% (second compound 1 µM, first compound 0.01 µM); 6.89% (second compound 1 µM, first compound 0.0316 µM); 7.25% (second compound 1 µM, first compound 0.1 µM); 3.29% (second compound 1 µM, first compound 0.316 µM); 0.52% (second compound 1 µM, first compound 1 µM). For the same compound, the viability, T/C was 7.36% (second compound 3.16 µM, first compound 0.00316 µM); 7.93% (second compound 3.16 µM, first compound 0.01 µM); 7.81% (second compound 3.16 µM, first compound 0.0316 µM); 5.28% (second compound 3.16 µM, first compound 0.1 µM); 1.59% (second compound 3.16 µM, first compound 0.316 µM); 0.38% (second compound 3.16 µM, first compound 1 µM). Also, the viability, T/C runs as follows: (second compound 10 µM, first compound 0.00316 µM) 5.3%; (second compound 10 µM, first compound 0.01 µM) 4.85%; (second compound 10 µM, first compound 0.0316 µM) 4.39%; (second compound 10 µM, first compound 0.1 µM) 2.53%; (second compound 10 µM, first compound 0.316 µM) 1.08%; (second compound 10 µM, first compound 1 µM) 0.6%.

As for `O=C(c1cc(Cc2n[nH]c(=O)c3ccccc23)ccc1F)N1CCN(C(=O)C2CC2)CC1`, the viability, T/C was 108% and 86.4% and 91.5% (compound 0.0316 µM); 99.5% and 81.7% and 85.2% (compound 0.1 µM); 59.4% and 79.7% and 82.2% (compound 0.316 µM); 57.3% and 63.1% and 73.7% (compound 1 µM); 44.9% and 53% and 35.5% (compound 3.16 µM); 44.7% and 41.7% and 29.5% (compound 10 µM). Besides, under “curve of compound”, the IC50 is 919 nM and 3840 nM and 2050 nM.

For the compound `CCN1CCN(Cc2ccc(Nc3ncc(F)c(-c4cc(F)c5nc(C)n(C(C)C)c5c4)n3)nc2)CC1` + CCN1C(C(=O)NC23CCC(C(=O)O)(CC2)CC3)C(c2cccc(Cl)c2F)C2(C(=O)Nc3cc(Cl)ccc32)C12CCCCC2, the IC50 under setting [1] was less than 3.16 nM; the IC50 under setting [2] is less than 3.16 nM; the IC50 under setting [3] is less than 3.16 nM; the half-maximal inhibitory concentration (IC50) under setting [4] was less than 3.16 nM; the IC50 under setting [5] is less than 3.16 nM. Besides, the viability, T/C under setting [6] is 42.9%; the viability, T/C under setting [7] was 39.7%; the viability, T/C under setting [8] is 41.4%; the viability, T/C under setting [9] is 38.6%; the viability, T/C under setting [10] was 46.5%; the viability, T/C under setting [11] was 56.1%. The viability, T/C is 25.2% under setting [12]; 24.9% under setting [13]; 26.3% under setting [14]; 29.5% under setting [15]; 34.6% under setting [16]; 56.7% under setting [17]. Further, the viability, T/C is 11.7% under setting [18]; 12.9% under setting [19]; 14% under setting [20]; 14.4% under setting [21]; 14.2% under setting [22]; 19.8% under setting [23]. The viability, T/C is, setting by setting: under setting [24], 9.3%; under setting [25], 8.54%; under setting [26], 10.2%; under setting [27], 11.4%; under setting [28], 10.6%; under setting [29], 14.6%. Also, the viability, T/C is, setting by setting: under setting [30], 8.98%; under setting [31], 7.11%; under setting [32], 8.3%; under setting [33], 7.8%; under setting [34], 8.59%; under setting [35], 13.3%.
